From patent publication US20180284123A1, “BARCODED RAPID ASSAY PLATFORM USEFUL FOR EFFICIENT ANALYSIS OF CANDIDATE MOLECULES AND METHODS OF MAKING AND USING THE PLATFORM” (California Institute of Technology, priority 2017, published 2018)

Experiments:
KRAS [1] = target: T1, KRAS (Homo sapiens, UniProt P01116); assay: B-RAP surface immunofluorescent assay, PCC ligand KRas EC50; format: binding; conditions: for Avg F635, Full Centroid / Avg F635, Full Lane / avg F635, Left Part Centroid / avg F635, Middle Part Centroid / avg F635, Right Part Centroid: 10 μM KRas well of plate #1, pixel by pixel; for avg F635, Left Part Centroid: left part of centroid; for avg F635, Middle Part Centroid: middle part of centroid; for avg F635, Right Part Centroid: right part of centroid; for EC50: 13-point KRas concentration series, each point in decaplicate, Hill coefficient=1
T1 construct: His6-tagged human KRas Isoform 4B (residues 1-169); His6; made in house; host or cells: E. coli BL21(DE3), PQE80 vector
T1 sequence (P01116 1-169 isoform P01116-2): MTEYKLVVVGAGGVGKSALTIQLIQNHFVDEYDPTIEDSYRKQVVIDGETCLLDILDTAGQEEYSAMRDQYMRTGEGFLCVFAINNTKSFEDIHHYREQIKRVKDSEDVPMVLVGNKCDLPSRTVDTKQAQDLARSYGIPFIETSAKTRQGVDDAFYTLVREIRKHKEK
Description: The barcode patterned microchip surface was partitioned into 16 individual microwells using a pre-fabricated PDMS slab. Individual biotinylated PCC candidates were complexed to specific SAC-DNA conjugates, combined into a cocktail, and then self-assembled, via DNA hybridization, onto designated barcode stripes (FIGS. 2-4). Incubation with a specific concentration of the target protein preceded incubation with a primary capture antibody and then a fluorophore-conjugated secondary detection antibody. During assay execution, each well represents a different target concentration or assay condition. Once developed, the fluorescence of the barcodes is digitized using a GenePix 4400A array scanner, with an excitation laser power optimized to a power level of 40% (60 W), which maximizes detection sensitivity while also minimizing signal saturation. Data extraction occurs using 10 μm radius circles, taken along the length of a barcode stripe. A fluorescence signal representing the average of all the pixels within a given circle is collected. A total of ten circles (data-blocks) are measured along a 180 μm span of the middle portion for each individual barcode lane in a given well. 10 μM KRas protein gave an average F635 of 47,868.7, with a standard deviation of 4154.53. 1 μM KRas protein gave an average F635 of 11437.6, with a standard deviation of 1602.202. 100 nM KRas protein gave an average F635 of 1780.6, with a standard deviation of 236.38. This illustrates the intensity across a stripe compared to the intensity from the data-block extraction. After extraction the data is background corrected. The background signal arises from (a) non-specific binding of the primary and secondary antibodies (independent of [KRas]), but can vary across different barcode stripes), and (b) non-specific binding of KRas protein ([KRas] dependent). Background (a) was assessed by measuring the average signal in the null protein well for each stripe. Background (b) was assessed by measuring the average fluorescence for the dummy ligand (Biotin* probe) that was in each well. The background subtracted data was then graphed in Graphpad Prism 7 and fitted to a sigmoidal curve (Hill coefficient=1).
Measurement of PCC Ligand KRas EC50 with the Barcode Rapid Assay Platform
Protein Incubation Buffer: Tris-buffered saline (TBS)+0.05% Tween20 (TBST)
A pre-fabricated PDMS template was aligned onto the DNA barcode microchip, and the microchip was taped into a 10 cm petri dish. The wells on the platform were wet with 50 μL PBST before filling with blocking buffer and placing into a 37° C. incubator for 1 hr. Concurrently, 40 μL 1% BSA in PBS solutions containing 750 nM of a SAC-DNA conjugate and 3.75 μM of one biotinylated PCC ligand or biotin-A20-Cy3 blank were prepared for each SAC-DNA conjugate. The biotinylated ligands were allowed to complex with the SAC protein for one hour before pooling the SAC-DNA-ligand solutions (final [SAC-DNA-ligand conjugates]=50 nM). The blocking buffer was aspirated and each well was loaded with the SAC-DNA-ligand conjugates cocktail for hybridization with the DNA barcode at 37° C. for one hour. The wells were washed with PBST (3×) before loading serially diluted solutions of KRas protein in protein buffer (0 to 400 μM). After shaking at RT for one hour, the wells were rinsed with PBST (5×), making sure to pipet up/down with the first addition of PB ST. A (100:1) dilution of CST rabbit anti-Ras Ab (#39655) in 1° ab buffer was added to each well before shaking at RT for one hour. After rinsing the wells with PBST (3×), the wells were loaded with a (200:1) dilution of Abcam goat anti-rabbit-Alexafluor 647 linked ab (ab150079) in 2° ab buffer before shaking at RT for one hour. A final rinse of the wells with PBST (3×) proceeded peeling off the PDMS slab from the barcode microchip and dipping the barcode into the following solutions: PBS, (1:1) PBS: MQ H2O, MQ H2O (2×). […]

KRAS [2] = target: T1, KRAS; assay: Multi-well ELISA, PCC ligand KRas EC50; format: binding; conditions: triplicate, KRas 0→300 μM, Hill coefficient=1
Description: Measurement of PCC Ligand KRas EC50 Using the Multi-Well ELISA Technology
A 96-well Pierce Neutravidin Plate was washed with binding buffer (3×5 minutes at RT) before loading plate with a 1 μM solution of either blank (biotin-PEG5-NHAc) (singly) or biotinylated PCC ligand (in triplicate). The plate incubated for two hours before washing with binding buffer (3×5 minutes). Blocking buffer was added to each well and the plate blocked for one hour before undergoing washing with binding buffer (3×5 minutes). Each well was loaded with either binding buffer or KRas solution (0→300 μM), and the plate was incubated for 30 minutes. Plate washing with binding buffer (3×5 minutes) preceded incubating the plate with a (1000:1) dilution of 1° antibody (ab) rabbit anti-Ras (CST #3965) in ab buffer for thirty minutes. The plate was washed with binding buffer (3×5 minutes), loaded with a (2000:1) dilution of 2° ab goat anti-rabbit, HRP-linked ab (CST #7074) in ab buffer, and incubated for an additional thirty minutes. […] After quenching the enzymatic reaction with 1M H2SO4(aq) (100 μL) the plate was read at λ=450 nm within ten minutes. The data was double background corrected using the ab only absorbance and the dummy ligand absorbance, plotted using Prism GraphPad 7 (Sigmoidal 4PL mode with the Hill coefficient set=1), and an EC50 value was calculated.

KRAS [3] = target: T1, KRAS; assay: Barcoded rapid assay microchip binding curves of FIG. 6A/6B; conditions: fitted curves of FIG. 6B, Hill coefficient set to 1, triplicate
Description: FIG. 6A is a picture of a barcoded rapid assay microchip (60) following its use for binding curve assays of KRAS to candidate ligands. […] EC50 binding curves of 15 candidate ligands were simultaneously generated against the target protein KRAS. Each microwell (ovals) represents a distinct concentration of KRAS that was added (values are given above each well). All 15 candidate ligands were measured in triplicate in each microwell.
FIG. 6B is a graph of the EC50 binding curves generated from the barcoded rapid assay microchip of FIG. 6A. Images of the barcoded rapid assay microchip were digitized using a fluorescence image scanner and plotted as binding curves (61) for each of the candidate ligands. All binding curves were fitted to Hill functions, with the Hill coefficient set to 1.
A series of peptide ligands that were identified as candidate binders to the protein KRas, using known literature methods, were prepared according to the methods of FIG. 3, and assembled into the individual microwells of the barcoded rapid assay microchip as illustrated in FIG. 4. […] Fluorescence imaging of the individual wells was then used to generate a fluorescence intensity, vs KRAS concentration, for each of the individual candidate ligands. […]

SMILES | Avg F635, Full Centroid (KRAS [1]) | Avg F635, Full Lane (KRAS [1]) | avg F635, Left Part Centroid (KRAS [1]) | avg F635, Middle Part Centroid (KRAS [1]) | avg F635, Right Part Centroid (KRAS [1]) | EC50 (KRAS [1]) | EC50 (KRAS [2]) | EC50 (KRAS [3])
NC(=O)CC[C@@H]1NC(=O)[C@@H](N)Cc2cn(nn2)CCCC[C@@H](C(=O)NCCOCCOCCOCCOCCOCCC(=O)NCCNC(=O)CCCC[C@@H]2SC[C@@H]3NC(=O)N[C@@H]32)NC(=O)[C@H](Cc2ccc(O)cc2)NC(=O)[C@H](Cc2ccccc2)NC(=O)[C@H](CC(N)=O)NC(=O)[C@H](CC(=O)O)NC1=O (single isomer, unassigned) [Ligand L9a, QDNFY] | 18391 | 16612 | 14966 | 20262 | 20045 | 5.43 ± 1 µM | 2.18 ± 2.7 µM | 6.55 µM
NC(=O)CC[C@@H]1NC(=O)[C@@H](N)Cc2cn(nn2)CCCC[C@@H](C(=O)NCCOCCOCCOCCOCCOCCC(=O)NCCNC(=O)CCCC[C@@H]2SC[C@@H]3NC(=O)N[C@@H]32)NC(=O)[C@H](Cc2ccc(O)cc2)NC(=O)[C@H](Cc2ccccc2)NC(=O)[C@H](CC(N)=O)NC(=O)[C@H](CC(=O)O)NC1=O (single isomer, unassigned) [Ligand L9b, QDNFY] | 45500 | 41812 | 39380 | 47791 | 49508 | 3.86 ± 0.57 µM | 3 ± 4.9 µM | 6.29 µM
